Source: patent publication US20210317092A1 (BAYER PHARMA AKTIENGESELLSCHAFT, priority 2016, published 2021)
Where two headings read alike, the source gives them in different places.

Target: T1, human Bradykinin B1 receptor (Homo sapiens, UniProt P46663)
T1 construct: host or cells: CHO-K1
T1 sequence (P46663 1-353): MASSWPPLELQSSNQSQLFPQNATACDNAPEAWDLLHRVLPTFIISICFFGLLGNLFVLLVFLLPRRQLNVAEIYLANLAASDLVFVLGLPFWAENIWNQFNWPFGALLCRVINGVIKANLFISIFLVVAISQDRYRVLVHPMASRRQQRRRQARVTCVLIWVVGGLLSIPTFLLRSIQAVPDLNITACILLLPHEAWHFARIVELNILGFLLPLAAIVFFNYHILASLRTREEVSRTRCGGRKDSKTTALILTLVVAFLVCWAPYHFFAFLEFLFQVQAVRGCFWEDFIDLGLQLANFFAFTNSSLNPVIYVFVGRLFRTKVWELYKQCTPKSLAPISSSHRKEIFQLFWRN
Assay: Calcium flux Assay (FLIPR) with recombinant CHO-K1 cells expressing human Bradykinin B1 receptor, in presence (hB1 IC50) or absence (hB1 free IC50) of 0.1% BSA
Assay type: cell-based

[1] = in absence of 0.1% BSA, read-out: hB1 free IC50
[2] = in presence of 0.1% BSA, read-out: hB1 IC50

Compound	IC50 [1] [nM]	IC50 [2] [nM]
O=C(Nc1ccc(-c2cc(F)cc(C(F)(F)F)c2)c(-c2nnn[nH]2)c1)C1(c2ccc(C(F)(F)F)cc2F)CC1 [Example 129, N-[3′-fluoro-2-(1H-tetrazol-5-yl)-5′-(trifluoromethyl)biphenyl-4-yl]-1-[2-fluoro-4-(trifluoromethyl)phenyl] cyclopropane-carboxamide]	77.2	
O=C(Nc1ccc(-c2cc(F)cc(C(F)(F)F)c2)c(-c2nnn[nH]2)c1)C1(c2cccc(Cl)c2)CC1 [Example 130, 1-(3-chlorophenyl)-N-[3′-fluoro-2-(1H-tetrazol-5-yl)-5′-(trifluoromethyl)biphenyl-4-yl]cyclopropane carboxamide]	362	
COc1ccc(-c2ccc(NC(=O)C3(c4ccc(C(F)(F)F)cc4F)CC3)cc2-c2nnn[nH]2)cc1C(F)(F)F [Example 131, 1-[2-fluoro-4-(trifluoromethyl)phenyl]-N-[4′-methoxy-2-(1H-tetrazol-5-yl)-3′-(trifluoromethyl)biphenyl-4-yl]cyclopropane carboxamide]	53	
COc1ccc(-c2ccc(NC(=O)C3(c4cccc(Cl)c4)CC3)cc2-c2nnn[nH]2)cc1C(F)(F)F [Example 132, 1-(3-chlorophenyl)-N-[4′-methoxy-2-(1H-tetrazol-5-yl)-3′-(trifluoromethyl)biphenyl-4-yl]cyclopropane carboxamide]	234	
COc1cc(-c2ccc(NC(=O)C3(c4ccc(C(F)(F)F)cc4F)CC3)cc2-c2nnn[nH]2)cc(C(F)(F)F)c1 [Example 133, 1-[2-fluoro-4-(trifluoromethyl)phenyl]-N-[3′-methoxy-2-(1H-tetrazol-5-yl)-5′-(trifluoromethyl)biphenyl-4-yl]cyclopropane carboxamide]	217	
COc1cc(-c2ccc(NC(=O)C3(c4cccc(Cl)c4)CC3)cc2-c2nnn[nH]2)cc(C(F)(F)F)c1 [Example 134, 1-(3-chlorophenyl)-N-[3′-methoxy-2-(1H-tetrazol-5-yl)-5′-(trifluoromethyl)biphenyl-4-yl]cyclopropane carboxamide]	572	
O=C(Nc1ccc(-c2ccc(C(F)(F)F)nc2)c(-c2nnn[nH]2)c1)C1(c2ccc(F)cc2F)CC1 [Example 142, 1-(2,4-difluorophenyl)-N-{3-(1H-tetrazol-5-yl)-4-[6-(trifluoromethyl)pyridin-3-yl]phenyl} cyclopropane-carboxamide]	201	
O=C(Nc1ccc(-c2ccc(C(F)(F)F)nc2)c(-c2nnn[nH]2)c1)C1(c2cc(F)c(F)cc2F)CC1 [Example 143, N-{3-(1H-tetrazol-5-yl)-4-[6-(trifluoromethyl)pyridin-3-yl]phenyl}-1-(2,4,5-trifluorophenyl) cyclopropane-carboxamide]	144	
O=C(Nc1ccc(-c2ccc(C(F)(F)F)nc2)c(-c2nnn[nH]2)c1)C1(c2ccc(F)cn2)CC1 [Example 145, 1-(5-fluoropyridin-2-yl)-N-{3-(1H-tetrazol-5-yl)-4-[6-(trifluoromethyl)pyridin-3-yl]phenyl} cyclopropane-carboxamide]	194	
COc1cc(-c2ccc(NC(=O)C3(c4cccc(Cl)c4)CC3)cc2-c2nnn[nH]2)cnc1C(F)(F)F [Example 146, 1-(3-chlorophenyl)-N-{4-[5-methoxy-6-(trifluoromethyl)pyridin-3-yl]-3-(1H-tetrazol-5-yl)phenyl} cyclopropane-carboxamide]	100	
COc1cncc(-c2ccc(NC(=O)C3(c4ccc(F)cc4F)CC3)cc2-c2nnn[nH]2)c1 [Example 150, 1-(2,4-difluorophenyl)-N-[4-(5-methoxypyridin-3-yl)-3-(1H-tetrazol-5-yl)phenyl] cyclopropane-carboxamide]		39.2
COc1cncc(-c2ccc(NC(=O)C3(c4cccc(C)c4)CC3)cc2-c2nnn[nH]2)c1 [Example 151, N-[4(5-methoxypyridin-3-yl)-3-(1H-tetrazol-5-yl)phenyl]-1-(3-methylphenyl) cyclopropane-carboxamide]		127
COc1cncc(-c2ccc(NC(=O)C3(c4cccc(C(F)(F)F)c4)CC3)cc2-c2nnn[nH]2)c1 [Example 152, N-[4-(5-methoxypyridin-3-yl)-3-(1H-tetrazol-5-yl)phenyl]-1-[3-(trifluoromethyl)phenyl] cyclopropane-carboxamide]		23.5
COc1cncc(-c2ccc(NC(=O)C3(c4ccc(C(F)(F)F)cc4)CC3)cc2-c2nnn[nH]2)c1 [Example 154, N-[4-(5-methoxypyridin-3-yl)-3-(1H-tetrazol-5-yl)phenyl]-1-[4-(trifluoromethyl)phenyl] cyclopropane-carboxamide]		27.1
CCOc1cncc(-c2ccc(NC(=O)C3(c4cccc(C(F)(F)F)c4)CC3)cc2-c2nnn[nH]2)c1 [Example 155, N-[4-(5-ethoxypyridin-3-yl)-3-(1H-tetrazol-5-yl)phenyl]-1-[3-(trifluoromethyl)phenyl] cyclopropane-carboxamide]		220
CCOc1cncc(-c2ccc(NC(=O)C3(c4ccc(F)cc4F)CC3)cc2-c2nnn[nH]2)c1 [Example 157, 1-(2,4-difluorophenyl)-N-[4-(5-ethoxypyridin-3-yl)-3-(1H-tetrazol-5-yl)phenyl] cyclopropane-carboxamide]		140
CCOc1ncc(-c2ccc(NC(=O)C3(c4cccc(Cl)c4)CC3)cc2-c2nnn[nH]2)cc1C(F)(F)F [Example 158, 1-(3-chlorophenyl)-N-{4-[6-ethoxy-5-(trifluoromethyl)pyridin-3-yl]-3-(1H-tetrazol-5-yl)phenyl} cyclopropane-carboxamide]		764
CCOc1ncc(-c2ccc(NC(=O)C3(c4cccc(Cl)c4F)CC3)cc2-c2nnn[nH]2)cc1C(F)(F)F [Example 159, 1-(3-chloro-2-fluorophenyl)-N-{4-[6-ethoxy-5-(trifluoromethyl)pyridin-3-yl]-3-(1H-tetrazol-5-yl)phenyl} cyclopropane-carboxamide]	40.3	585
CCOc1ncc(-c2ccc(NC(=O)C3(c4ccc(C(F)(F)F)cc4)CC3)cc2-c2nnn[nH]2)cc1C [Example 161, N-[4-(6-ethoxy-5-methylpyridin-3-yl)-3-(1H-tetrazol-5-yl)phenyl]-1-[4-(trifluoromethyl)phenyl] cyclopropane-carboxamide]		24.9
CCOc1ncc(-c2ccc(NC(=O)C3(c4ccc(F)cc4F)CC3)cc2-c2nnn[nH]2)cc1C [Example 162, 1-(2,4-difluorophenyl)-N-[4-(6-ethoxy-5-methylpyridin-3-yl)-3-(1H-tetrazol-5-yl)phenyl] cyclopropane-carboxamide]		59
CCOc1ncc(-c2ccc(NC(=O)C3(c4ccc(C(F)(F)F)cc4)CC3)cc2-c2nnn[nH]2)cc1F [Example 164, N-[4-(6-ethoxy-5-fluoropyridin-3-yl)-3-(1H-tetrazol-5-yl)phenyl]-1-[4-(trifluoromethyl)phenyl] cyclopropane-carboxamide]		14.5
CCOc1ncc(-c2ccc(NC(=O)C3(c4ccc(F)cc4F)CC3)cc2-c2nnn[nH]2)cc1F [Example 165, 1-(2,4-difluorophenyl)-N-[4-(6-ethoxy-5-fluoropyridin-3-yl)-3-(1H-tetrazol-5-yl)phenyl] cyclopropane-carboxamide]		64.1
CCOc1cc(-c2ccc(NC(=O)C3(c4cccc(Cl)c4)CC3)cc2-c2nnn[nH]2)cc(C(F)(F)F)n1 [Example 166, 1-(3-chlorophenyl)-N-{4-[2-ethoxy-6-(trifluoromethyl)pyridin-4-yl]-3-(1H-tetrazol-5-yl)phenyl} cyclopropane-carboxamide]	1130	2160
O=C(Nc1ccc(-c2cc(F)ncc2F)c(-c2nnn[nH]2)c1)C1(c2ccc(C(F)(F)F)cc2F)CC1 [Example 167, N-[4-(2,5-difluoropyridin-4-yl)-3-(1H-tetrazol-5-yl)phenyl]-1-[2-fluoro-4-(trifluoromethyl)phenyl] cyclopropane-carboxamide]	634	
CN(C)c1ccc(-c2ccc(NC(=O)C3(c4cccc(Cl)c4)CC3)cc2-c2nnn[nH]2)cn1 [Example 169, 1-(3-chlorophenyl)-N-{4-[6-(dimethylamino)pyridin-3-yl]-3-(1H-tetrazol-5-yl)phenyl} cyclopropane-carboxamide]		117
O=C(Nc1ccc(-c2ccnc(C(F)F)c2)c(-c2nnn[nH]2)c1)C1(c2cccc(Cl)c2)CC1 [Example 170, 1-(3-chlorophenyl)-N-{4-[2-(difluoromethyl)pyridin-4-yl]-3-(1H-tetrazol-5-yl)phenyl} cyclopropane-carboxamide]	968	
O=C(Nc1ccc(-c2ccnc(C(F)(F)F)c2)c(-c2nnn[nH]2)c1)C1(c2cccc(Cl)c2F)CC1 [Example 172, 1-(3-chloro-2-fluorophenyl)-N-{3-(1H-tetrazol-5-yl)-4-[2-(trifluoromethyl)pyridin-4-yl]phenyl} cyclopropane-carboxamide]	433	347
O=C(Nc1ccc(-c2ccnc(C(F)(F)F)c2)c(-c2nnn[nH]2)c1)C1(c2ccc(F)cn2)CC1 [Example 174, 1-(5-fluoropyridin-2-yl)-N-{3-(1H-tetrazol-5-yl)-4-[2-(trifluoromethyl)pyridin-4-yl]phenyl} cyclopropane-carboxamide]	1110	
O=C(Nc1ccc(-c2ccnc(C(F)(F)F)c2)c(-c2nnn[nH]2)c1)C1(c2ccc(F)c(Cl)c2)CC1 [Example 176, 1-(3-chloro-4-fluorophenyl)-N-{3-(1H-tetrazol-5-yl)-4-[2-(trifluoromethyl)pyridin-4-yl]phenyl} cyclopropane-carboxamide]	258	
